Key:
rabbit aorta rings = assay: Vasorelaxant effect in vitro (rabbit aorta rings precontracted with phenylephrine); conditions: Oryctolagus cuniculus, phenylephrine contraction, read-out: IC50 (concentration needed to reduce the magnitude of the phenylephrine contraction by 50%)
Description: B-1. Vasorelaxant Effect In Vitro
Rabbits are stunned by a blow to the neck and exsanguinated. The aorta is removed, freed from adhering tissue and divided into rings of width 1.5 mm, which are placed individually under prestress into 5 ml organ baths with carbogen-sparged Krebs-Henseleit solution at 37° C. having the following composition (each mM): sodium chloride: 119; potassium chloride: 4.8; calcium chloride dihydrate: 1; magnesium sulphate heptahydrate: 1.4; potassium dihydrogenphosphate: 1.2; sodium hydrogencarbonate: 25; glucose: 10. The contractile force is determined with Statham UC2 cells, amplified and digitalized using A/D transducers (DAS-1802 HC, Keithley Instruments Munich), and recorded in parallel on linear recorders.
To obtain a contraction, phenylephrine is added to the bath cumulatively in increasing concentration. After several control cycles, the substance to be studied is added in increasing dosage each time in every further run, and the magnitude of the contraction is compared with the magnitude of the contraction attained in the last preceding run. This is used to calculate the concentration needed to reduce the magnitude of the control value by 50% (IC50 value). The standard administration volume is 5 μl; the DMSO content in the bath solution corresponds to 0.1%.

human PDE 5 = human PDE 5 (Homo sapiens (Human), UniProt O76074); assay: Inhibition of human phosphodiesterase 5 (PDE 5), SPA assay; assay type: biochemical; conditions: PDE 5 preparation from human platelets, [8-3H]cGMP substrate
Description: B-6. Inhibition of Human Phosphodiesterase 5 (PDE 5)
PDE 5 preparations are obtained from human platelets by disruption (Microfluidizer®, 800 bar, 3 passes), followed by centrifugation (75 000 g, 60 min, 4° C.) and ion exchange chromatography of the supernatant on a Mono Q 10/10 column (linear sodium chloride gradient, elution with a 0.2-0.3M solution of sodium chloride in buffer (20 mM Hepes pH 7.2, 2 mM magnesium chloride). Fractions having PDE 5 activity are combined (PDE 5 preparation) and stored at −80° C.
To determine their in vitro action on human PDE 5, the test substances are dissolved in 100% DMSO and serially diluted. Typically, dilution series (1:3) from 200 μM to 0.091 μM are prepared (resulting final concentrations in the test: 4 μM to 0.0018 μM). In each case 2 μl of the diluted substance solutions are placed into the wells of microtitre plates (Isoplate-96/200 W; Perkin Elmer). Subsequently, 50 μl of a dilution of the above-described PDE 5 preparation are added. The dilution of the PDE 5 preparation is selected such that, during the later incubation, less than 70% of the substrate is converted (typical dilution: 1:100; dilution buffer: 50 mM tris/hydrochloric acid pH 7.5, 8.3 mM magnesium chloride, 1.7 mM EDTA, 0.2% BSA). The substrate, [8-^3H]cyclic guanosine-3′,5′-monophosphate (1 μCi/μl; Perkin Elmer) is diluted 1:2000 with assay buffer (50 mM tris/hydrochloric acid pH 7.5, 8.3 mM magnesium chloride, 1.7 mM EDTA) to a concentration of 0.0005 μCi/μl. By addition of 50 μl (0.025 μCi) of the diluted substrate, the enzyme reaction is finally started. The test mixtures are incubated at room temperature for 60 min and the reaction is stopped by adding 25 μl of a suspension of 18 mg/ml yttrium scintillation proximity beads in water (phosphodiesterase beads for SPA assays, RPNQ 0150, Perkin Elmer). The microtitre plates are sealed with a film and left to stand at room temperature for 60 min Subsequently, the plates are analysed for 30 s per well in a Microbeta scintillation counter (Perkin Elmer). IC50 values are determined using the graphic plot of the substance concentration against percentage PDE 5 inhibition.

[1] = tested on: recombinant guanylate cyclase reporter cell line; assay: Effect on a recombinant guanylate cyclase reporter cell line; assay type: cell-based; conditions: read-out: MEC (minimal effective concentration)
Description: B-2. Effect on a Recombinant Guanylate Cyclase Reporter Cell Line
The cellular action of the inventive compounds is determined on a recombinant guanylate cyclase reporter cell line as described in F. Wunder et al., Anal. Biochem. 339, 104-112 (2005).

IC50 (rabbit aorta rings)	IC50 (human PDE 5)	SMILES	minimal effective concentration [1]
10000 nM	450 nM	CCCc1nc(-n2nc(Cc3ccccc3F)c3ccccc32)nc2c1C(C)(C)C(=O)N2 [Example 28, 2-[3-(2-Fluorobenzyl)-1H-indazol-1-yl]-5,5-dimethyl-4-propyl-5,7-dihydro-6H-pyrrolo[2,3-d]-pyrimidin-6-one]	1 µM
292 nM	230 nM	Cc1ncc2c(-c3ncc4c(n3)NC(=O)C4(C)C)nn(Cc3cccc(F)c3F)c2n1 [Example 17, 2-[1-(2,3-Difluorobenzyl)-6-methyl-1H-pyrazolo[3,4-d]pyrimidin-3-yl]-5,5-dimethyl-5,7-dihydro-6H-pyrrolo[2,3-d]pyrimidin-6-one]	0.3 µM
1140 nM	16 nM	Cc1ncc2c(-c3nnc4c(n3)NC(=O)C4(C)C)nn(Cc3cccc(F)c3F)c2n1 [Example 18, 3-[1-(2,3-Difluorobenzyl)-6-methyl-1H-pyrazolo[3,4-d]pyrimidin-3-yl]-7,7-dimethyl-5,7-dihydro-6H-pyrrolo[2,3-e][1,2,4]triazin-6-one]	0.3 µM
–	160 nM	CC1(C)C(=O)Nc2nc(-c3nn(Cc4ncccc4F)c4cc(Cl)ccc34)nnc21 [Example 25, 3-[6-Chloro-1-[(3-fluoropyridin-2-yl)methyl]-1H-indazol-3-yl]-7,7-dimethyl-5,7-dihydro-6H-pyrrolo[2,3-e][1,2,4]triazin-6-one]	0.3 µM
7730 nM	530 nM	CC1(C)C(=O)Nc2nc(-n3nc(CCC(F)(F)C(F)(F)F)c4cc(F)ccc43)nnc21 [Example 22, 3-[5-Fluoro-3-(3,3,4,4,4-pentafluorobutyl)-1H-indazol-1-yl]-7,7-dimethyl-5,7-dihydro-6H-pyrrolo[2,3-e][1,2,4]triazin-6-one]	1 µM
–	25 nM	CC1(C)C(=O)Nc2nc(-c3nn(Cc4ccccc4F)c4cc(Cl)ccc34)nnc21 [Example 24, 3-[6-Chloro-1-(2-fluorobenzyl)-1H-indazol-3-yl]-7,7-dimethyl-5,7-dihydro-6H-pyrrolo[2,3-e][1,2,4]triazin-6-one]	0.1 µM
78 nM	310 nM	Cc1ncc2c(-c3ncc4c(n3)NC(=O)C4(C)C)nn(Cc3ccccc3F)c2n1 [Example 15, 2-[1-(2-Fluorobenzyl)-6-methyl-1H-pyrazolo[3,4-d]pyrimidin-3-yl]-5,5-dimethyl-5,7-dihydro-6H-pyrrolo[2,3-d]pyrimidin-6-one]	0.1 µM
124 nM	370 nM	CC1(C)C(=O)Nc2nc(-c3nn(Cc4ccccc4F)c4ncncc34)nnc21 [Example 19, 3-[1-(2-Fluorobenzyl)-1H-pyrazolo[3,4-d]pyrimidin-3-yl]-7,7-dimethyl-5,7-dihydro-6H-pyrrolo[2,3-e][1,2,4]triazin-6-one]	0.1 µM
8060 nM	440 nM	CCc1nc(-n2nc(Cc3ccccc3F)c3cc(F)ccc32)nc2c1C(C)(C)C(=O)N2 [Example 23, 4-Ethyl-2-[5-fluoro-3-(2-fluorobenzyl)-1H-indazol-1-yl]-5,5-dimethyl-5,7-dihydro-6H-pyrrolo[2,3-d]pyrimidin-6-one]	1 µM
–	3500 nM	CC1(C)C(=O)Nc2nc(-c3nn(Cc4ccccc4F)c4c3CCC4)nnc21 [Example 12, 3-[1-(2-Fluorobenzyl)-1,4,5,6-tetrahydrocyclopenta[c]pyrazol-3-yl]-7,7-dimethyl-5,7-dihydro-6H-pyrrolo[2,3-e][1,2,4]triazin-6-one]	1 µM
1670 nM	340 nM	Cc1nc(-n2nc(Cc3ccccc3F)c3cc(F)ccc32)nc2c1C(C)(C)C(=O)N2 [Example 27, 2-[5-Fluoro-3-(2-fluorobenzyl)-1H-indazol-1-yl]-4,5,5-trimethyl-5,7-dihydro-6H-pyrrolo[2,3-d]pyrimidin-6-one]	0.3 µM
794 nM	95 nM	CC1(C)C(=O)Nc2nc(-c3nn(CCC(F)(F)C(F)(F)F)c4cc(Cl)ccc34)nnc21 [Example 26, 3-[6-Chloro-1-(3,3,4,4,4-pentafluorobutyl)-1H-indazol-3-yl]-7,7-dimethyl-5,7-dihydro-6H-pyrrolo[2,3-e][1,2,4]triazin-6-one]	0.3 µM
1130 nM	75 nM	CC1(C)C(=O)Nc2nc(-n3nc(Cc4ccccc4F)c4cc(F)ccc43)nnc21 [Example 21, 3-[5-Fluoro-3-(2-fluorobenzyl)-1H-indazol-1-yl]-7,7-dimethyl-5,7-dihydro-6H-pyrrolo[2,3-e][1,2,4]triazin-6-one]	0.1 µM

Further lines, the molecule ahead of its results:

SMILES	IC50 (rabbit aorta rings)	IC50 (human PDE 5)	minimal effective concentration [1]
CC1(C)C(=O)Nc2nc(-n3nc(Cc4ccccc4F)c4ncc(F)cc43)nnc21 [Example 9, 3-[6-Fluoro-3-(2-fluorobenzyl)-1H-pyrazolo[4,3-b]pyridin-1-yl]-7,7-dimethyl-5,7-dihydro-6H-pyrrolo[2,3-e][1,2,4]triazin-6-one]	641 nM	85 nM	0.1 µM
CC1(C)C(=O)Nc2nc(-c3nn(Cc4ccccc4F)c4c3CCC4)nc(I)c21 [Example 10, 2-[1-(2-Fluorobenzyl)-1,4,5,6-tetrahydrocyclopenta[c]pyrazol-3-yl]-4-iodo-5,5-dimethyl-5,7-dihydro-6H-pyrrolo[2,3-d]pyrimidin-6-one]	–	480 nM	1 µM
CC1(C)C(=O)Nc2nc(-n3nc(Cc4ccccc4F)c4cc(F)ccc43)nc(I)c21 [Example 6, 2-[5-Fluoro-3-(2-fluorobenzyl)-1H-indazol-1-yl]-4-iodo-5,5-dimethyl-5,7-dihydro-6H-pyrrolo[2,3-d]pyrimidin-6-one]	–	690 nM	0.766 µM
CC1(C)C(=O)Nc2nc(-n3nc(Cc4ccccc4F)c4ccccc43)nc(I)c21 [Example 3, 2-[3-(2-Fluorobenzyl)-1H-indazol-1-yl]-4-iodo-5,5-dimethyl-5,7-dihydro-6H-pyrrolo[2,3-d]pyrimidin-6-one]	–	690 nM	0.3 µM
CC1(C)C(=O)Nc2nc(-n3nc(Cc4c(F)ccc(F)c4F)c4cc(Cl)ccc43)ncc21 [Example 2, 2-[5-Chloro-3-(2,3,6-trifluorobenzyl)-1H-indazol-1-yl]-5,5-dimethyl-5,7-dihydro-6H-pyrrolo[2,3-d]pyrimidin-6-one]	5160 nM	3700 nM	0.065 µM
CC1(C)C(=O)Nc2nc(-n3nc(Cc4ccccc4F)c4cc(F)ccc43)ncc21 [Example 8, 2-[5-Fluoro-3-(2-fluorobenzyl)-1H-indazol-1-yl]-5,5-dimethyl-5,7-dihydro-6H-pyrrolo[2,3-d]pyrimidin-6-one]	95 nM	400 nM	0.3 µM
CC1(C)C(=O)Nc2nc(-c3nn(Cc4ccccc4F)c4c3CCC4)ncc21 [Example 11, 2-[1-(2-Fluorobenzyl)-1,4,5,6-tetrahydrocyclopenta[c]pyrazol-3-yl]-5,5-dimethyl-5,7-dihydro-6H-pyrrolo[2,3-d]pyrimidin-6-one]	601 nM	4000 nM	0.3 µM
CC1(C)C(=O)Nc2nc(-n3nc(Cc4ccccc4F)c4ccccc43)ncc21 [Example 5, 2-[3-(2-Fluorobenzyl)-1H-indazol-1-yl]-5,5-dimethyl-5,7-dihydro-6H-pyrrolo[2,3-d]pyrimidin-6-one]	22 nM	440 nM	0.03 µM

Reference: patent publication US9023849B2, “Substituted fused imidazoles and pyrazoles and use thereof” (Bayer Intellectual Property GmbH, priority 2012, dated 2015)
